Experimental data as given in patent US12213481B1, “4,4′-[(2-hydroxypropane-1,3-diyl)bis(oxy)]dibenzaldehyde as an eco-friendly insecticidal agent against Spodoptera littoralis (boisd.)” (KING FAISAL UNIVERSITY, priority 2023, dated 2025).
≈ marks a conversion by molar mass, not a printed value. Like-named read-outs stand apart in the source and are kept apart here.

Legend:
[1] = test system: Spodoptera littoralis larvae (2nd and 4th instars, laboratory strain of cotton leafworm); test: Insecticidal leaf dip bioassay screening; conditions: for Toxicity index %: fenoxycarb's LC50/compound's LC50 * 100; for LC50: Spodoptera littoralis, in Gossypium hirsutum, foliar, 72 h
Protocol: (§1) Five concentrations (200, 100, 50, 25, 12.5 ppm) were designed for this synthetic compound and the reference fenoxycarb's compound as the dynamic ingredients based on ppm via diluting the commercial formulation.
(§2) In this experiment, the synthetic compound was tested for its insecticidal bioactivity using the industry-standard leaf dip bioassay techniques. […] Until usage, the stocks were kept in a refrigerator. The target substance test results were noted & the concentrations needed to destroy 50% (LC50) of S. littoralis larvae were calculated. The target compound was employed in five different concentrations, & 0.1% Tween 80 was employed as a surfactant. Castor bean leaf discs (nine centimeters in diameter) were dipped in the concentration under test for ten seconds, then fed to 2th & 4th larvae, which were roughly the same size and housed in glass jars (five pound). Each action carried out 3 times with ten larvae each. The mortality equalized via Abbott's formula. Calculations of mortality setback line were measurably rummage via probity analysis. Harmfulness index was strongminded via sun equations. The mortality results of larval insect were estimated through employing probit analysis through a statistics (LDP-line) equation which estimate the LC50 values with 95% fiducially limits of lower, upper confidence limit and slope.

[2] = test system: Spodoptera littoralis larvae (2nd and 4th instars, laboratory strain of cotton leafworm); conditions: in vivo
Protocol: as §1, §2

aquatic insects = conditions: cited from earlier work
[3] = read-out: LC50 (mg/L) at 95%, 2nd instar larvae, after 72 hours of treatment, leaf dip
[4] = read-out: LC50 (mg/L) at 95%, 4th instar larvae, after 72 hours of treatment, leaf dip

| SMILES | Toxicity index % ([1]; 2nd instar larvae, 72 hours) [%] | Toxicity index % ([1]; 4th instar larvae, 72 hours) [%] | LC50 [1, 3] [mg/L] | LC50 [1, 4] [mg/L] | activity against Spodoptera littoralis (in words) ([1]; compared with the reference insecticide Fenoxycarb, 72 hours) | LC50 (mg/L) at 95% [2] | LC50 (aquatic insects) [µg/mL] |
| --- | --- | --- | --- | --- | --- | --- | --- |
| O=Cc1ccc(OCC(O)COc2ccc(C=O)cc2)cc1 [Compound 1, 4,4′-[(2-hydroxypropane-1,3-diyl)bis(oxy)]dibenzaldehyde] | 22.93 | 69.54 | 25.6 (≈ 85.3 µM) | ~86.1 (≈ 287 µM) | active against Spodoptera littoralis | about 25.62 mg/L | – |
| CCOC(=O)NCCOc1ccc(Oc2ccccc2)cc1 [fenoxycarb, reference compound] | – | – | 5.94 (≈ 19.7 µM) | 59.9 (≈ 199 µM) | – | – | – |
| CCc1ccc(C(=O)NN(C(=O)c2cc(C)cc(C)c2)C(C)(C)C)cc1 [tebufenozide] | – | – | – | – | – | – | 100 to 1000 |
